pEC50, pIC50: −log10 of the molar value. Like-named read-outs stand apart in the source and are kept apart here.
Tested on: cancer cell lines from the cancer cell line encyclopedia (CCLE)
Assay: Cell line profiling (CLiP) proliferation experiment
Format: cell-based
Settings: Homo sapiens; for pIC50: read-out: Crossing Point; for pEC50: read-out: Inflection Point
Description: Compound profiling experiment and data analysis was performed as previously described. Data was imported and plotted using the Tibco Spotfire DXP application. Lines were categorized as sensitive, intermediate and refractory as follows: Amax<-40 & Inflection Point <2 ~ Sensitive, Amax>-20 & Inflection Point >10 ~ Refractory, all else were called Intermediate. Cancer Cell line HG-U133 Plus 2 data was processed and normalized as described. […] Five sets of refractory cell lines were generated from the pool of refractory cell lines trying to match the lineage composition of the set of sensitive cell lines. The limma package was used as previously described to perform the statistical comparison.

[1] = NCI-H1666, cell line NCI-H1666 (lung)
[2] = NCI-H1703, cell line NCI-H1703 (lung)
[3] = NCI-H1734, cell line NCI-H1734 (lung)
[4] = NCI-H1793, NCI-H1793, lung, adenocarcinoma
[5] = NCI-H2122, NCI-H2122, lung, adenocarcinoma
[6] = NCI-H2405, NCI-H2405, lung, adenocarcinoma
[7] = NCI-H3255, NCI-H3255, lung, adenocarcinoma
[8] = NUGC-4, NUGC-4, stomach, signet_ring_adenocarcinoma
[9] = OC-314, OC 314, ovary, serous_carcinoma
[10] = OCI-LY19, OCI-LY-19, haematopoietic_and_lymphoid_tissue, diffuse_large_B_cell_lymphoma
[11] = P12-Ichikawa, P12-ICHIKAWA cells
[12] = P12-Ichikawa, cell line P12-ICHIKAWA

CC(C)[C@@]12C[C@@H](O)[C@@](C)(O1)[C@@H]1CC[C@@H](C)[C@H]1[C@@H]2OC(=O)/C=C/c1ccccc1 [Englerin B]
pIC50 [1]: 4.65
pEC50 [1]: 4.64
pIC50 (NCI-H1693, cell line NCI-H1693 (lung)): < 4.52
pIC50 (NCI-H1693, cell line NCI-H1693): < 4.52
pIC50 [2]: 4.83
pEC50 [2]: 4.64
pIC50 [3]: 4.71
pEC50 [3]: 4.71
pIC50 (NCI-H1792, NCI-H1792, lung, adenocarcinoma): 4.60
pIC50 (NCI-H1792, cell line NCI-H1792 (lung, adenocarcinoma)): 4.60
pIC50 [4]: < 4.52
pEC50 [4]: 4.65
pIC50 (NCI-H1793, cell line NCI-H1793): < 4.52
pIC50 (NCI-H1944, NCI-H1944, lung, adenocarcinoma): 4.80
pIC50 (NCI-H1944, cell line NCI-H1944): 4.80
pIC50 (NCI-H1975, NCI-H1975, lung, adenocarcinoma): < 4.52
pIC50 (NCI-H1975, NCI-H1975 cells): < 4.52
pIC50 [5]: < 4.52
pEC50 [5]: 4.98
pIC50 (NCI-H2122, cell line NCI-H2122): < 4.52
pIC50 (NCI-H2126, NCI-H2126, lung, adenocarcinoma): < 4.52
pIC50 (NCI-H2126, NCI-H2126 cells): < 4.52
pIC50 (NCI-H2170, NCI-H2170, lung, squamous_cell_carcinoma): < 4.52
pIC50 (NCI-H2170, cell line NCI-H2170): < 4.52
pIC50 [6]: < 4.52
pEC50 [6]: 4.83
pIC50 (NCI-H2405, cell line NCI-H2405): < 4.52
pIC50 (NCI-H2452, NCI-H2452, pleura, NS): < 4.52
pIC50 (NCI-H2452, cell line NCI-H2452): < 4.52
pIC50 [7]: 4.57
pEC50 [7]: 4.57
pIC50 (NCI-H3255, NCI-H3255 cells): 4.57
pEC50 (NCI-H3255, NCI-H3255 cells): 4.57
pIC50 (NUGC-3, NUGC-3, stomach, NS): < 4.52
pIC50 (NUGC-3, NUGC-3 cells): < 4.52
pIC50 [8]: 4.66
pEC50 [8]: 4.80
pEC50 (NUGC-4, NUGC-4 cells): 4.80
pIC50 (OAW-42, OAW42, ovary, adenocarcinoma): < 4.52
pIC50 (OAW-42, OAW42 cells): < 4.52
pIC50 [9]: < 4.52
pEC50 [9]: 4.83
pIC50 (OC-314, OC 314 cells): < 4.52
pEC50 (OC-314, OC 314 cells): 4.83
pIC50 (OCI-AML2, OCI-AML2, haematopoietic_and_lymphoid_tissue, acute_myeloid_leukaemia): 4.79
pIC50 (OCI-AML-3, OCI-AML3, haematopoietic_and_lymphoid_tissue, acute_myeloid_leukaemia): 4.74
pIC50 [10]: 4.85
pEC50 [10]: 4.83
pEC50 (OCI-LY19, OCI-LY-19 cells): 4.83
pIC50 (OCI-Ly3, OCI-LY3, haematopoietic_and_lymphoid_tissue, diffuse_large_B_cell_lymphoma): 4.88
pIC50 (OE19, OE19, oesophagus, adenocarcinoma): 4.69
pIC50 (OS-RC-2, OS-RC-2 cells): < 4.52
pEC50 (OS-RC-2, OS-RC-2 cells): 4.94
pIC50 (OS-RC-2, cell line OS-RC-2): < 4.52
pEC50 (OS-RC-2, cell line OS-RC-2): 4.94
pIC50 (OV-90, OV-90 cells): < 4.52
pIC50 (OV-90, cell line OV-90): < 4.52
pIC50 (OVCAR-4, cell line OVCAR-4): 4.53
pIC50 (OVCAR-8, cell line OVCAR-8): 4.68
pEC50 (OVSAHO, OVSAHO cells): 4.74
pIC50 (OVSAHO, cell line OVSAHO): 4.63
pEC50 (OVSAHO, cell line OVSAHO): 4.74
pIC50 (P3HR-1, cell line P3HR-1): 4.59
pIC50 [11]: 4.72
pEC50 [11]: 4.72
pIC50 [12]: 4.72
pEC50 [12]: 4.72
pIC50 (P31-FUJ, cell line P31/FUJ): 4.71
pIC50 (PANC-1, cell line PANC-1): 4.62
pIC50 (PANC-03-27, cell line Panc 03.27): 4.67
pIC50 (PC-14, cell line PC-14): 4.67
pEC50 (PF-382, PF-382 cells): 4.88
pIC50 (PF-382, cell line PF-382): 4.78
pEC50 (PF-382, cell line PF-382): 4.88
pIC50 (PLC-PRF-5, PLC/PRF/5 (liver)): 4.84
pIC50 (PLC-PRF-5, cell line PLC/PRF/5): 4.84
pIC50 (PSN1, cell line PSN1): 4.53
pIC50 (Panc 02.03, Panc 02.03 cells): < 4.52
pIC50 (Panc 02.03, cell line Panc 02.03): < 4.52
pIC50 (Panc 04.03, Panc 04.03 cells): < 4.52
pIC50 (Panc 04.03, cell line Panc 04.03): < 4.52
pEC50 (Panc1005, Panc 10.05 cells): 4.96
pIC50 (Panc1005, cell line Panc 10.05): 4.88
pEC50 (Panc1005, cell line Panc 10.05): 4.96
pIC50 (RD, RD cells): < 4.52
pIC50 (REH, Reh cells): 4.67
pEC50 (REH, Reh cells): 4.67
pIC50 (RPMI 8402, RPMI-8402 cells): 4.72
pIC50 (RPMI 8402, cell line RPMI-8402): 4.72
pIC50 (RPMI-7951, cell line RPMI-7951): 4.71
pEC50 (RPMI-7951, cell line RPMI-7951): 4.86
pIC50 (RPMI-8226, cell line RPMI 8226): 4.77

From paper PMC4476799, “Englerin A Agonizes the TRPC4/C5 Cation Channels to Inhibit Tumor Cell Line Proliferation” (PLoS ONE, 2015)
